Results: patent publication US20220177538A1, “CO-AGONISTS AT GLP-1 AND GIP RECEPTORS SUITABLE FOR ORAL DELIVERY” (Novo Nordisk A/S, priority 2020, published 2022)
Read-outs that look alike come from different tables or passages of the source. Marks after values point to notes of the source that are not given here. Starred links: 1 amine or outer side, 2 acyl side, 3 side chain; linkers in the order of their positions; H or OH if unused. Non-standard residues stand in square brackets, D forms with d. Residues, ends and D or L forms follow the SMILES beside them. Groups on a side chain read outwards from the residue. *: point of attachment. C18 diacid = O=C(O)CCCCCCCCCCCCCCCCC(=O)*; γGlu = O=C(O)[C@H](CCC(=O)[*:2])N[*:1]; εLys = N[C@@H](CCCCN[*:1])C(=O)[*:2]; AEEA = NCCOCCOCC(=O)O; Aib = CC(C)(N)C(=O)O

Columns and labels:
[1] = Pharmacokinetic study in dogs after oral dosing of tablets with SNAC; format: in vivo, Beagle dogs; details: for Tmax / half-life: male, Beagle
Description: The purpose of this example is to determine the half-life and plasma exposure in vivo of the compounds of the present invention after p.o. administration to beagle dogs, i.e. the terminal half-life and concentration of test substance that reaches circulation with time. This is done in a pharmacokinetic (PK) study, where these parameters of the compound in question are determined. By terminal half-life is generally meant the period of time it takes to halve a certain plasma concentration, measured after the initial distribution phase.
The amount of SNAC in the tablet composition was 100-300 mg, the amount of magnesium stearate in the tablet composition was 7.7 mg, and the target amount of each test substance in the tablet composition was 3-4 mg.
Male beagle dogs, 1-7 years of age and weighing 9-17 kg during the study period, were included in the study. The dogs were dosed in a fasting state. The dogs were group housed in pens (12 hours light: 12 hours dark), and fed individually and restrictedly once daily with Royal Canin Medium Adult dog food (Royal Canin Products, China Branch, or Brogaarden A/S, Denmark). The dogs were used for repeated PK studies with a suitable wash-out period between successive dosing. An appropriate acclimatization period was given prior to initiation of the first PK study. All handling, dosing, and blood sampling of the animals were performed by trained and skilled staff. Before the studies, the dogs were fasted overnight and from 0 to 4 hours after dosing. The dogs were restricted to water 1 hour before dosing until 4 hours after dosing, but otherwise had ad libitum access to water during the whole period.
The compositions were administered by a single oral dosing to the dogs in groups of 6-8 dogs. […] The mouth was then closed, and 10 mL of tap water was given by syringe or gavage to facilitate swallowing of the tablet.
One blood sample was drawn before dosing, and additional samples were drawn at predefined time points after dosing for up to 240 hours, such as up to 10 hours, to adequately cover the full plasma concentration-time absorption profile of the test substance. For each blood sample time point, approximately 0.8 mL of whole blood was collected in a 1.5 mL EDTA-coated tube, which was gently turned to mix the sample with EDTA. Blood samples were collected in EDTA buffer (8 mM) and then centrifuged at 4° C. 2000 g for 10 minutes. Plasma was pipetted into Micronic tubes on dry ice, and kept at −20° C. or lower until analysis. Blood samples were taken as appropriate, for example from a venflon in the cephalic vein in the front leg for the first 2 hours and then with syringe from the jugular vein for the rest of the time points. The first few drops were allowed to drain from the venflon to avoid heparin saline from the venflon in the sample.
All blood samples were collected into test tubes containing EDTA for stabilisation and kept on ice until centrifugation. Plasma was separated from whole blood by centrifugation and the plasma was stored at −20° C. or lower until analysis.
The plasma was analysed for test substance using LC-MS (Liquid Chromatography-Mass Spectrometry) as known to the person skilled in the art. […] RP-HPLC separation was achieved using a linear gradient of 1:1 acetonitrile/methanol in 1% aqueous formic acid using either: a Phenomenex Onyx Monolithic C18 column (50×2.0 mm) and a flow rate of 0.8 mL/min at 30° C.; or an Agilent Poroshell 120 SB-C18 column (50×2.1 mm, 2.7 μm) at a flow rate of 0.4 mL/min at 60° C. The mass spectrometer was operated in either positive ionization SIM mode or positive ionization PRM mode.
For each individual animal, a plasma concentration-time profile was analysed by a non-compartmental model in Pharsight Phoenix WinNonLin ver.

[2] = molecular target: human GLP-1 receptor (Homo sapiens, UniProt P43220); test: In vitro functional potency, CRE luciferase reporter, whole BHK cells (hGLP-1R); format: cell-based; set-up: expressed in transfected cells; host or cells: BHK (parent line BHKTS13), clone BHK CRE luc2P hGLP-1R; details: BHK CRE luc2P hGLP-1R cells
Chain of human GLP-1 receptor (P43220 24-463): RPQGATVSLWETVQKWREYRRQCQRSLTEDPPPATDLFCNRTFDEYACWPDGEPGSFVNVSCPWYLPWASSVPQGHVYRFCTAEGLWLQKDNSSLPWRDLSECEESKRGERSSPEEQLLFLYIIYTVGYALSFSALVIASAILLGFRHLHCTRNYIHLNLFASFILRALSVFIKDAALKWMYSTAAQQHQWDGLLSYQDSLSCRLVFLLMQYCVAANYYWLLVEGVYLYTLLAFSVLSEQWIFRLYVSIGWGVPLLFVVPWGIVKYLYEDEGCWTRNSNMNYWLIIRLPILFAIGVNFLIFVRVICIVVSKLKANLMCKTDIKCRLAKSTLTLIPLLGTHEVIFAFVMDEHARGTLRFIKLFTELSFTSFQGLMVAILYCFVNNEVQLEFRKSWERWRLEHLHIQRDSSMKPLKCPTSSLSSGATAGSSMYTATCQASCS
Summary of the method: (§1)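 Potencies are replicate means (n≥2) from non-linear log(agonist) vs response fits of CRE-driven luminescence. Cells were overnight-plated BHK CRE luc2P lines transfected with human GIPR or GLP-1R, 5000/well.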

[3] = molecular target: T1, human GIP receptor (Homo sapiens, UniProt P48546); test: In vitro functional potency, CRE luciferase reporter, whole BHK cells (hGIPR); format: cell-based; details: BHK CRE luc2P hGIPR cells
T1 construct: expressed in transfected cells; host or cells: BHK (parent line BHKTS13), clone BHK CRE luc2P hGIPR
T1 sequence (P48546 22-466): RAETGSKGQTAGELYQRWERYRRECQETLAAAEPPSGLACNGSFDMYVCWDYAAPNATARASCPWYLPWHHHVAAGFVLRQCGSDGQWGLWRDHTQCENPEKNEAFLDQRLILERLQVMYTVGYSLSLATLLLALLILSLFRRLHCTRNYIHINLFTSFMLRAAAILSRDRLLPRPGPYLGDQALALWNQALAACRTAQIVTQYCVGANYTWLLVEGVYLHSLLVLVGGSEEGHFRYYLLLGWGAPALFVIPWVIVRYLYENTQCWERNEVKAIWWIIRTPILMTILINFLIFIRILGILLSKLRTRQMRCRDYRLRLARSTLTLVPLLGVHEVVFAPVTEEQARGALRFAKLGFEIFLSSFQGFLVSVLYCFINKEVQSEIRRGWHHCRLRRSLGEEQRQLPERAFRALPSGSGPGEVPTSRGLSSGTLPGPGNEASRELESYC
Summary of the method: as §1

[4] = 0% HSA, read-out: hGLP-1R, CRE Luc 0% HSA EC50
[5] = hGLP-1R, CRE Luc 1% HSA EC50, 1% HSA
[6] = 0% HSA, read-out: hGIPR, CRE Luc 0% HSA EC50
[7] = hGIPR, CRE Luc 1% HSA EC50, 1% HSA

Compound	Tmax ([1]; dog, in vivo, po) [h]	half-life ([1]; dog, in vivo, po) [h]	AUC/Dose ([1]; oral tablet, SNAC 300 mg, test substance 3 mg, Beagle dogs, arithmetic mean) [kg·h/L]	EC50 [2, 4] [nM]	EC50 [2, 5] [nM]	EC50 [3, 6] [nM]	EC50 [3, 7] [nM]	AUC/Dose ([1]; dog, in vivo, po)	Cmax/Dose ([1]; dog, in vivo, po)
CC[C@H](C)[C@H](NC(=O)[C@H](Cc1ccccc1)NC(=O)[C@H](CCC(=O)O)NC(=O)[C@H](CCCNC(=N)N)NC(=O)[C@H](C)NC(=O)[C@H](C)NC(=O)[C@H](CCC(N)=O)NC(=O)[C@H](CCC(=O)O)NC(=O)[C@H](CCC(=O)O)NC(=O)[C@H](CC(C)C)NC(=O)[C@H](CC(C)C)NC(=O)[C@@H](NC(=O)[C@H](CO)NC(=O)[C@H](Cc1ccc(O)cc1)NC(=O)[C@H](CC(=O)O)NC(=O)[C@H](CO)NC(=O)[C@@H](NC(=O)[C@H](Cc1ccccc1)NC(=O)[C@@H](NC(=O)CNC(=O)[C@H](CCC(=O)O)NC(=O)C(C)(C)NC(=O)[C@@H](N)Cc1ccc(O)cc1)[C@@H](C)O)[C@@H](C)O)[C@@H](C)CC)C(=O)N[C@@H](CCC(=O)O)C(=O)N[C@@H](Cc1c[nH]c2ccccc12)C(=O)N[C@@H](CC(C)C)C(=O)N[C@@H](CC(C)C)C(=O)N[C@@H](C)C(=O)NCC(=O)NCC(=O)N1CCC[C@H]1C(=O)N[C@@H](CO)C(=O)N[C@@H](CCCCNC(=O)[C@@H](N)CCCCNC(=O)[C@@H](N)CCCCNC(=O)CC[C@H](NC(=O)CCCCCCCCCCCCCCCCC(=O)O)C(=O)O)C(=O)NCC(=O)N[C@@H](C)C(=O)N1CCC[C@H]1C(=O)N1CCC[C@H]1C(=O)N1CCC[C@H]1C(=O)N[C@@H](CO)C(=O)O [Compound 43] (H-Y[Aib]EGTFTSDYSILLEEQAAREFIEWLLAGGPSK([εLys-εLys-γGlu-C18 diacid])GAPPPS-OH)	1.5	131	21.4	0.004	0.359	0.0056	0.445		
CC[C@H](C)[C@H](NC(=O)[C@H](Cc1ccccc1)NC(=O)[C@H](CCC(=O)O)NC(=O)[C@H](CCCNC(=N)N)NC(=O)[C@H](C)NC(=O)[C@H](C)NC(=O)[C@H](CCC(N)=O)NC(=O)[C@H](CCC(=O)O)NC(=O)[C@H](CCC(=O)O)NC(=O)[C@H](CC(C)C)NC(=O)[C@H](CC(C)C)NC(=O)[C@H](CCCCNC(=O)[C@@H](N)CCCCNC(=O)[C@@H](N)CCCCNC(=O)CC[C@H](NC(=O)CCCCCCCCCCCCCCCCC(=O)O)C(=O)O)NC(=O)[C@H](CO)NC(=O)[C@H](Cc1ccc(O)cc1)NC(=O)[C@H](CC(=O)O)NC(=O)[C@H](CO)NC(=O)[C@@H](NC(=O)[C@H](Cc1ccccc1)NC(=O)[C@@H](NC(=O)CNC(=O)[C@H](CCC(=O)O)NC(=O)C(C)(C)NC(=O)[C@@H](N)Cc1ccc(O)cc1)[C@@H](C)O)[C@@H](C)O)C(=O)N[C@@H](CCC(=O)O)C(=O)N[C@@H](Cc1c[nH]c2ccccc12)C(=O)N[C@@H](CC(C)C)C(=O)N[C@@H](CC(C)C)C(=O)N[C@@H](C)C(=O)NCC(=O)NCC(=O)N1CCC[C@H]1C(=O)N[C@@H](CO)C(=O)N[C@@H](CO)C(=O)NCC(=O)N[C@@H](C)C(=O)N1CCC[C@H]1C(=O)N1CCC[C@H]1C(=O)N1CCC[C@H]1C(=O)N[C@@H](CO)C(=O)O [Compound 40]	2	61		0.0064	0.334	0.0095	0.501	27.0 kg·h/L	0.48 kg/L
CC[C@H](C)[C@H](NC(=O)[C@H](Cc1ccccc1)NC(=O)[C@H](CCC(=O)O)NC(=O)[C@H](CCCNC(=N)N)NC(=O)[C@H](C)NC(=O)[C@H](C)NC(=O)[C@H](CCC(N)=O)NC(=O)[C@H](CCCCNC(=O)COCCOCCNC(=O)COCCOCCNC(=O)CC[C@H](NC(=O)CCCCCCCCCCCCCCCCC(=O)O)C(=O)O)NC(=O)[C@H](CCC(=O)O)NC(=O)[C@H](CC(C)C)NC(=O)[C@H](CC(C)C)NC(=O)[C@@H](NC(=O)[C@H](CO)NC(=O)[C@H](Cc1ccc(O)cc1)NC(=O)[C@H](CC(=O)O)NC(=O)[C@H](CO)NC(=O)[C@@H](NC(=O)[C@H](Cc1ccccc1)NC(=O)[C@@H](NC(=O)CNC(=O)[C@H](CCC(=O)O)NC(=O)C(C)(C)NC(=O)[C@@H](N)Cc1ccc(O)cc1)[C@@H](C)O)[C@@H](C)O)[C@@H](C)CC)C(=O)N[C@@H](CCC(=O)O)C(=O)N[C@@H](Cc1c[nH]c2ccccc12)C(=O)N[C@@H](CC(C)C)C(=O)N[C@@H](CC(C)C)C(=O)N[C@@H](C)C(=O)NCC(=O)NCC(=O)N1CCC[C@H]1C(=O)N[C@@H](CO)C(=O)N[C@@H](CO)C(=O)NCC(=O)N[C@@H](C)C(=O)N1CCC[C@H]1C(=O)N1CCC[C@H]1C(=O)N1CCC[C@H]1C(=O)N[C@@H](CO)C(=O)O [Compound 32] (H-Y[Aib]EGTFTSDYSILLEK([AEEA-AEEA-γGlu-C18 diacid])QAAREFIEWLLAGGPSSGAPPPS-OH)	1.8	80		0.005	0.982	0.0071	0.679	25.3* kg * h/L	0.45* kg/L
CC[C@H](C)[C@H](NC(=O)[C@H](Cc1ccccc1)NC(=O)[C@H](CCC(=O)O)NC(=O)[C@H](CCC(N)=O)NC(=O)[C@H](C)NC(=O)[C@H](C)NC(=O)[C@H](CCC(N)=O)NC(=O)[C@H](CCCCNC(=O)[C@@H](N)CCCCNC(=O)[C@@H](N)CCCCNC(=O)CC[C@H](NC(=O)CCCCCCCCCCCCCCCCC(=O)O)C(=O)O)NC(=O)[C@H](CCC(=O)O)NC(=O)[C@H](CC(C)C)NC(=O)[C@H](CC(C)C)NC(=O)[C@@H](NC(=O)[C@H](CO)NC(=O)[C@H](Cc1ccc(O)cc1)NC(=O)[C@H](CC(=O)O)NC(=O)[C@H](CO)NC(=O)[C@@H](NC(=O)[C@H](Cc1ccccc1)NC(=O)[C@@H](NC(=O)CNC(=O)[C@H](CCC(=O)O)NC(=O)C(C)(C)NC(=O)[C@@H](N)Cc1ccc(O)cc1)[C@@H](C)O)[C@@H](C)O)[C@@H](C)CC)C(=O)N[C@@H](CC(N)=O)C(=O)N[C@@H](Cc1c[nH]c2ccccc12)C(=O)N[C@@H](CC(C)C)C(=O)N[C@@H](CC(C)C)C(=O)N[C@@H](C)C(=O)NCC(=O)NCC(=O)N1CCC[C@H]1C(=O)N[C@@H](CO)C(=O)N[C@@H](CO)C(=O)NCC(=O)N[C@@H](C)C(=O)N1CCC[C@H]1C(=O)N1CCC[C@H]1C(=O)N1CCC[C@H]1C(=O)N[C@@H](CO)C(=O)O [Compound 24] (H-Y[Aib]EGTFTSDYSILLEK([εLys-εLys-γGlu-C18 diacid])QAAQEFINWLLAGGPSSGAPPPS-OH)	1.8	74		0.0121	0.49	0.0039	0.115	16.4 kg·h/L	0.29 kg/L
